test system: rhythmic bladder contractions induced by substance P; assay: Inhibitory effect on the rhythmic bladder contractions induced by substance P in anesthetized rats; type: in vivo, rat; details: time during which frequency of rhythmic contraction was completely inhibited, 0.25 mg/kg of the compound, substance P infusion
Protocol: Inhibitory effect on the rhythmic bladder contractions induced by substance P in anesthetized rats
For the experiments, Sprague-Dawley female rats (9 to 12 weeks old) weighing between 200 to 300 g were used. After urethane anesthetization (subcutaneously administered with a dose of 1.2 g/kg), cannulae were placed in both right and left femoral veins. One intravenous catheter was used for administration of compounds, and the other was for the substance P (0.33 μg/kg/min) infusion. We also cannulated into ureter to pass urine. Polyethylene catheters were inserted into carotid artery for continuous monitoring of arterial blood pressure and heart rate. For continuous infusion, transurethral bladder catheter was inserted into the bladder through the urethra and tied in place by a ligature around the urethral orifice. One end of the catheter was attached to a pressure transducer in order to measure intravesical pressure. The other end of the catheter was used for infusion of saline into the bladder. After stabilization of blood pressure and heart rate and after the bladder was emptied, cystometry was performed by filling the bladder slowly with about 0.6 ml of saline. After about 10 minutes, intravenous infusion of substance P (0.33 μg/kg/min) was started for stabilization of the micturition reflex. Compounds were administered after stable rhythmic bladder contraction was obtained over 15 minutes. All compounds were dissolved or suspended in saline containing 0.5% Tween 80 for intravenous administration (0.1 ml/kg).
A 100% inhibition time (minute) of the selected compounds of the present invention is shown in the following Table 65 with a rank of A, B or C. These ranges are as mentioned below. A≧20>B≧10>C (minute)

Compound	100% inhibition time range
O=C(O)Cc1nc(-c2cscn2)oc1-c1ccc(Cl)s1 [Preparation Example 274]	B (A≧20>B≧10>C (minute))
O=C(O)Cc1nc(-c2cc3ccccc3cn2)oc1-c1cccs1 [Preparation Example 276]	C (A≧20>B≧10>C (minute))
COc1cc(-c2nc(CC(=O)O)c(-c3ccc(Cl)s3)o2)ccc1O [Preparation Example 289]	B (A≧20>B≧10>C (minute))
COc1ccc(-c2nc(CC(=O)O)c(-c3ccc(Cl)s3)o2)cc1O [Preparation Example 290]	B (A≧20>B≧10>C (minute))
CC(C)c1ccc(-c2nc(CC(=O)O)c(-c3cccs3)o2)cc1 [Preparation Example 291]	C (A≧20>B≧10>C (minute))
CC(C)COc1cc(-c2oc(-c3ccc(F)cc3)nc2CC(=O)O)ccc1O [Preparation Example 292]	C (A≧20>B≧10>C (minute))
COc1cc(-c2oc(-c3ccc(F)cc3)nc2CC(=O)O)ccc1O [Preparation Example 293]	C (A≧20>B≧10>C (minute))
CCOC(=O)Cc1nc(-c2ccc(F)cc2)oc1-c1ccccc1 [Preparation Example 296, ethyl 2-(4-fluoro-phenyl)-5-phenyloxazol-4-yl acetate]	C (A≧20>B≧10>C (minute))
CCOC(=O)Cc1nc(-c2ccc(N(C)C)nc2)oc1-c1cccs1 [Preparation Example 331]	A (A≧20>B≧10>C (minute))
N#CCCc1nc(-c2ccc(F)cc2)oc1-c1cccs1 [Preparation Example 337, 4-(2-cyanoethyl)-2-(4-fluorophenyl)-5-(2-thienyl)oxazole]	C (A≧20>B≧10>C (minute))
CS(=O)(=O)Nc1nc(-c2ccc(F)cc2)oc1-c1ccc(Cl)c(F)c1.[Na] [Preparation Example 348, 5-(4-chloro-3-fluorophenyl)-2-(4-fluorophenyl)oxazol-4-yl methanesulfonamide sodium salt]	C (A≧20>B≧10>C (minute))
O=C(O)Cc1[nH]c(-c2cc3ccccc3s2)nc1-c1ccc(Cl)s1 [Preparation Example 351]	C (A≧20>B≧10>C (minute))
COc1ccc(-c2nc(CC(=O)O)c(-c3ccc(Cl)s3)o2)cn1 [Preparation Example 368]	B (A≧20>B≧10>C (minute))
COc1ccc(-c2nc(CC(=O)O)c(-c3ccsc3)o2)cn1 [Preparation Example 369]	B (A≧20>B≧10>C (minute))
CS(=O)(=O)NC(=O)Cc1nc(-c2ccc(F)cc2)oc1-c1ccsc1.[Na] [Preparation Example 370, N-[2-(4-fluorophenyl)-5-(3-thienyl)oxazol-4-ylacetyl]methanesulfonamide sodium salt]	C (A≧20>B≧10>C (minute))
O=C(Cc1nc(-c2ccc(F)cc2)oc1-c1ccsc1)NS(=O)(=O)c1cccnc1 [Preparation Example 371]	C (A≧20>B≧10>C (minute))
O=C(Cc1nc(-c2ccc(F)cc2)oc1-c1ccsc1)NCc1ccccn1 [Preparation Example 375]	C (A≧20>B≧10>C (minute))
O=C(Cc1nc(-c2ccc(F)cc2)oc1-c1ccsc1)Nc1cccnc1 [Preparation Example 376]	C (A≧20>B≧10>C (minute))
CS(=O)(=O)Nc1nc(-c2ccc(F)cc2)oc1-c1ccsc1.[Na] [Preparation Example 380, N-[2-(4-fluorophenyl)-5-(3-thienyl)oxazol-4-yl]methanesulfonamide sodium salt]	C (A≧20>B≧10>C (minute))
O=C(O)Cc1nc(-c2ccc(C(F)(F)F)cc2)oc1-c1cccs1 [Preparation Example 430]	B (A≧20>B≧10>C (minute))
Cc1ccccc1-c1nc(CC(=O)O)c(-c2cccs2)o1 [Preparation Example 433]	C (A≧20>B≧10>C (minute))
O=C(O)Cc1nc(-c2ccc(CO)cc2)oc1-c1ccc(Cl)s1 [Preparation Example 436]	C (A≧20>B≧10>C (minute))
O=C(O)Cc1nc(-c2ccc3ccccc3n2)oc1-c1ccsc1 [Preparation Example 439]	C (A≧20>B≧10>C (minute))
CSc1ccc(-c2nc(CC(=O)O)c(-c3ccsc3)o2)cc1 [Preparation Example 440]	C (A≧20>B≧10>C (minute))
O=C(O)Cc1nc(-c2ccc3ncccc3c2)oc1-c1ccsc1 [Preparation Example 442]	C (A≧20>B≧10>C (minute))
O=C(O)Cc1nc(-c2ccc3c(c2)CCCO3)oc1-c1ccsc1 [Preparation Example 443]	C (A≧20>B≧10>C (minute))
O=C(O)Cc1nc(-c2cc3ccccc3s2)oc1-c1ccc(Cl)c(F)c1 [Preparation Example 447]	B (A≧20>B≧10>C (minute))

Compound	100% inhibition time range
CSCc1ccc(-c2nc(CC(=O)O)c(-c3ccc(Cl)s3)o2)cc1 [Preparation Example 448]	C (A≧20>B≧10>C (minute))
CCSc1ccc(-c2nc(CC(=O)O)c(-c3ccc(Cl)s3)o2)cc1 [Preparation Example 449]	B (A≧20>B≧10>C (minute))
Cc1ccc2sc(-c3nc(CC(=O)O)c(-c4ccc(Cl)s4)o3)cc2c1 [Preparation Example 450]	B (A≧20>B≧10>C (minute))
O=C(O)Cc1nc(-c2ccc3c(c2)CCCS3)oc1-c1ccc(Cl)s1 [Preparation Example 456]	C (A≧20>B≧10>C (minute))
CSc1cccc(-c2nc(CC(=O)O)c(-c3ccc(Cl)s3)o2)c1 [Preparation Example 457]	B (A≧20>B≧10>C (minute))
O=C(O)Cc1nc(-c2cc3ccccc3[nH]2)oc1-c1ccc(Cl)s1 [Preparation Example 466]	B (A≧20>B≧10>C (minute))
Cc1cc(-c2nc(CC(=O)O)c(-c3ccc(Cl)s3)o2)sc1C [Preparation Example 467]	A (A≧20>B≧10>C (minute))
O=C(O)Cc1nc(-c2cc3ncccc3s2)oc1-c1ccc(Cl)s1 [Preparation Example 470]	B (A≧20>B≧10>C (minute))
Cn1c(-c2nc(CC(=O)O)c(-c3ccc(Cl)s3)o2)cc2ccccc21 [Preparation Example 472]	A (A≧20>B≧10>C (minute))
Cc1cc(-c2nc(CC(=O)O)c(-c3ccc(Cl)cc3)o2)sc1C [Preparation Example 474]	C (A≧20>B≧10>C (minute))
COc1ccc(-c2nc(CC(=O)O)c(-c3ccc(Cl)cc3)o2)cc1 [Preparation Example 475]	B (A≧20>B≧10>C (minute))
CC(C)c1ncc(-c2nc(CC(=O)O)c(-c3ccsc3)o2)cn1 [Preparation Example 476]	B (A≧20>B≧10>C (minute))
OCc1[nH]c(-c2csc(Cl)c2)nc1-c1cccnc1 [Preparation Example 482, 2-(5-chloro-thiophen-3-yl)-5-hydroxymethyl-4-(3-pyridyl)imidazole]	C (A≧20>B≧10>C (minute))
Cl.O=C(O)Cc1nc(-c2ccc(F)cc2)oc1-c1cccnc1 [Preparation Example 484, 2-(4-fluoro-phenyl)-5-(3-pyridyl)oxazol-4-yl acetic acid hydrochloride]	B (A≧20>B≧10>C (minute))
CN(C)c1ncc(-c2nc(-c3cccs3)c(CC(=O)O)o2)cn1 [Preparation Example 505]	B (A≧20>B≧10>C (minute))
CN(C)c1ncc(-c2nc(-c3ccc(Cl)cc3)c(CC(=O)O)o2)cn1 [Preparation Example 513]	C (A≧20>B≧10>C (minute))
COc1ccc(-c2nc(-c3ccc(Cl)s3)c(CC(=O)O)o2)cc1 [Preparation Example 516]	B (A≧20>B≧10>C (minute))
N#Cc1cccc(-c2oc(-c3ccc(F)cc3)nc2CC(=O)O)c1 [Preparation Example 522]	B (A≧20>B≧10>C (minute))
COc1ccc(-c2nc(CC(=O)O)c(-c3ccc(Cl)s3)o2)cc1 [Preparation Example 523]	B (A≧20>B≧10>C (minute))
COc1ccc(-c2nc(CC(=O)O)c(-c3ccc(Cl)c(F)c3)o2)cc1 [Preparation Example 525]	A (A≧20>B≧10>C (minute))
O=C(O)Cc1nc(-c2ccc(N3CCSC3)nc2)oc1-c1ccsc1 [Preparation Example 529]	B (A≧20>B≧10>C (minute))
CCN(CC)c1ccc(-c2nc(CC(=O)O)c(-c3ccsc3)o2)cn1 [Preparation Example 530]	C (A≧20>B≧10>C (minute))
CCc1nc(-c2ccc(F)cc2)oc1-c1cccnc1 [Preparation Example 532]	C (A≧20>B≧10>C (minute))
O=C(O)Cc1sc(-c2ccc(F)cc2)nc1-c1ccc(Cl)s1 [Preparation Example 568]	A (A≧20>B≧10>C (minute))
O=C(O)Cc1sc(-c2cc3ccccc3s2)nc1-c1ccc(Cl)s1 [Preparation Example 569]	A (A≧20>B≧10>C (minute))
COc1ccc(-c2nc(-c3ccc(Cl)s3)c(CC(=O)O)s2)cc1 [Preparation Example 570]	A (A≧20>B≧10>C (minute))
CN(C)c1ccc(-c2nc(-c3ccc(Cl)s3)c(CC(=O)O)s2)cn1 [Preparation Example 571]	A (A≧20>B≧10>C (minute))
